Laboratory results taken from a melting point compilation (Tetko et al.; mined from patent text by program, amines drawn as free bases though some values may be those of a salt).

Row | melting point | Structure (SMILES)
1 | 161 to 163 °C | CCOC(=O)n1nc(-c2cc(C(C)(C)C)c(O)c(C(C)(C)C)c2)c2cccnc21
2 | 193 to 196 °C | COc1cc2ncnc(N3CCCc4ccccc43)c2cc1SC
3 | 253 to 254 °C | CCc1[nH]n(C2CCCC2)c2nc(-c3ccc4c(c3)CCO4)nc(=O)c1-2
4 | 166 to 168 °C | COC1(c2nc3ccc(C)cc3s2)C=CC(=NS(=O)(=O)c2ccc(C)cc2)C=C1 (stereo not given)
5 | 170 to 173 °C | COc1ccc(-c2ccc3cnc(Nc4ccc(N5CCN(C)CC5)cc4OC)nn23)cn1
6 | 141 °C | COc1ccc(-c2cc(=O)n(Cc3ccc(Cl)cc3Cl)nc2-c2ccc(OC)cc2)cc1
7 | 269 °C | O=C1Cc2cc(-c3cccc([N+](=O)[O-])c3)ccc2N1
8 | 26 to 28 °C | CSC1CC(=O)N1Cc1ccccc1 (stereo not given)
9 | 242 to 243 °C | CCCn1c(-c2ccc(C#C[Si](C(C)C)(C(C)C)C(C)C)cc2)nc2cc(C#N)c(C#N)cc21
10 | 144 to 150 °C | CN1CCN(C(c2ccc(Cl)cc2)c2ccccc2C(=O)O)CC1 (stereo not given)
11 | 175 to 176 °C | CS(=O)(=O)c1cccnc1S(C)(=O)=O
12 | 99 to 100 °C | COC(c1ccc(Cl)c2nc3n(c12)CCCN3c1ccc(Cl)cc1Cl)(C1CC1)C1CC1
13 | 176 to 178 °C | c1ccc(N2CCN(c3nsc4nc5ccccc5n34)CC2)nc1
14 | 143 to 145 °C | CCc1c(N)c(C(N)=O)nn1CC1CC1
15 | 159 to 160 °C | Cn1nnnc1C(CBr)=C(c1ccc(F)cc1)c1ccc(F)cc1
16 | 205 to 208 °C | Nc1ccc(Oc2ccc(Oc3ccc(N)cc3)c(P(=O)(c3ccccc3)c3ccccc3)c2)cc1
17 | 130 to 131 °C | CN(C)Nc1c([N+](=O)[O-])cc(C(F)(F)F)c(Cl)c1[N+](=O)[O-]
18 | > 230 °C | COC(=O)C1=C(C)Nc2c(c(=O)n(C)c(=O)n2C)C1c1cccc([N+](=O)[O-])c1 (stereo not given)
19 | 154 to 155 °C | O=C(O)CCCC=C(c1cccnc1)c1cccc(NC(=S)Nc2ccc(Cl)cc2Cl)c1
20 | 68 to 68.5 °C | CCN(C(=O)OC)C1=CC(=O)CC1
21 | 60 to 62 °C | COC(=O)CCC(=O)c1cccc(Cl)c1O
22 | 147 to 148 °C | [N-]=[N+]=NCCOc1ccc(F)c2c1CC(=O)N2
23 | 144 to 146 °C | COc1ccc2c(n1)C1(CO2)C(=O)N(Cc2ccc3c(c2)OCCO3)c2ccccc21 (stereo not given)
24 | 192 °C | CNc1ccc(N2CCOC2=O)cc1[N+](=O)[O-]

Row | melting point | Structure (SMILES)
25 | 92 °C | CC#CCOc1ccc(S(=O)C(C(=O)NO)c2ccc(Cl)cc2)cc1 (stereo not given)
26 | > 290 °C | CN1CCc2c(N3CCCC3)c(F)c(N)c3c(=O)c(C(=O)O)cn1c23
27 | 227 to 229 °C | COc1ccc(-c2cc(S(=O)(=O)c3ccc(N)cc3)cc(N3CCCC3)n2)cc1
28 | 152 to 155 °C | COC(=O)C(C)(C)Cc1c(SC(C)(C)C)c2cc(OCc3ccc4cnccc4n3)ccc2n1Cc1ccc(Cl)cc1
29 | 107 to 108 °C | CC(O)=C1C(=O)CC(c2cc(Cl)sc2Cl)CC1=O (stereo not given)
30 | 155 to 160 °C | CCCCc1nc(Cl)c(/C=C(\Cc2ccccc2)C(=O)O)n1Cc1ccc(-c2c(O)c(=O)c2=O)cc1
31 | 272 to 274 °C | COCCCn1c(C(=O)O)cc2c3c(c(-c4ccccc4Cl)cc21)C(=O)NC3=O
32 | 118 to 120 °C | Cn1c(=O)c2c(ncn2CCCCC#N)n(C)c1=O
33 | 240 to 242 °C | COc1cc(Cc2cnc(NC=O)nc2N)cc(OC)c1OC
34 | 216 to 217 °C | COc1ccc(Cl)cc1-c1c(CCO)c(=O)[nH]c2ccc(C(F)(F)F)cc12
35 | 188 °C | COc1ccc(-c2c(C(N)=O)c3n(c2Cl)CCN(C(=O)OC(C)(C)C)C3)cc1
36 | 175 to 178 °C | COc1c(C#C[Si](C)(C)C)cc(-n2ccc(=O)[nH]c2=O)cc1-c1ccc2cc(NS(C)(=O)=O)ccc2c1
37 | 85 to 87 °C | CC(=O)C(Cc1cc(Cl)cc(Cl)c1)C(C)=O
38 | 138 to 140 °C | CC(=O)Nc1ccc(C2=NN(C(=O)CCl)C(C)Cc3cc4c(cc32)OCO4)cc1 (stereo not given)
39 | 121 to 123 °C | Cc1cccc2c1NC(=O)C(CCCN1CCN(c3ccccc3F)CC1)S2 (stereo not given)
40 | 101 to 102 °C | CCNC(=O)n1nc(Oc2ncc(C(F)(F)F)cc2Cl)c(CC)c1C
41 | 122 to 123 °C | COc1ccc(C2CCN(C(=O)CC(=O)O)CC2)cc1OC1CCCC1
42 | 115 to 118 °C | COc1ccccc1Oc1ccc(Cl)cc1C(=O)O
43 | 223 to 226 °C | O=C(O)C1=Cc2ccccc2NC1
44 | 230 °C | O=C(O)c1cc2cc(F)c(Cl)cc2nc1Cl
45 | 304 to 306 °C | O=c1c2c[nH]c3c(c-2nn1-c1ccccc1)COCC3
46 | 186 to 188 °C | CC(C)c1nc(-c2ccccc2)n(-c2ccc(F)cc2)c1CO
47 | 215 °C | Cc1nc2n(c(=O)c1CCBr)CCCS2
48 | 222 to 223 °C | COC(=O)c1cc(F)c(O)nc1Nc1ccc(F)cc1F

Row | melting point | Structure (SMILES)
49 | 108 to 110 °C | CN(C)CCNc1ncc(-c2ccccc2)c(C(=O)N(C)Cc2cc(C(F)(F)F)cc(C(F)(F)F)c2)n1
50 | 133 to 135 °C | CC(=O)Nc1ccc(OCC2CCCC(OC(CCn3ccnc3)c3ccc(F)cc3)O2)cc1 (stereo not given)
51 | 228 °C | CCOC(=O)C1=CC(C(=O)c2cc(C)ccc2O)=CN2CCc3c([nH]c4ccc(OC)cc34)C12C(=O)OCC (stereo not given)
52 | 217 to 218 °C | COC(=O)c1ccc(C(=O)Nc2cc3c4c(c2)CCCC4(C)CCC3)cc1
53 | > 290 °C | Cc1[nH]c(=O)c(C#N)c2c1CC(C)CC2 (stereo not given)
54 | 254 to 255 °C | CC1Cc2cc3c(cc2C(c2ccc([N+](=O)[O-])cc2)=NN1c1ccc(Cl)nn1)OCO3 (stereo not given)
55 | 157 to 160 °C | CCCc1nc(N)nc(N)c1N1CCN(Cc2ccccc2)CC1
56 | 110 to 111 °C | CCOC(=O)C1=C(C)Nc2ccnc(OC(C)C)c2C1c1cccs1 (stereo not given)
57 | 254 to 256 °C | O=C(O)/C=C1\CCc2c(F)cc(Cl)cc21
58 | 122 to 124 °C | C#CCNC(=NCCSCc1ccc(CN(C)C)o1)NC#N
59 | 159 to 161 °C | O=C(O)c1cccc2ccoc12
60 | 81 to 82 °C | COc1ccc(N=C(C)c2ccccc2)cc1
61 | 247 to 248 °C | CC(C)(C)c1ccc(N2C[C@@H](COc3ccc(C(=O)O)cc3)CC2=O)cc1
62 | 118 to 122 °C | CS(=O)(=O)NCCS(=O)(=O)N1CCN(S(=O)(=O)c2ccc(-c3ccc(Cl)cc3)s2)[C@@H](C(=O)NO)C1
63 | 57 to 61.5 °C | Cc1csc2ccc(C3CCN(Cl)CC3)cc12
64 | 108 to 111 °C | O=C(Nc1ccccc1S(=O)(=O)NCCCn1cccn1)c1cccc(C(F)(F)F)c1
65 | 149 to 151 °C | O=C(NCCOc1ccc(CC(Oc2ccccc2)C(=O)O)cc1)c1ccc(-c2ccccn2)cc1 (stereo not given)
66 | 228 to 230 °C | COc1cccc(CNC(=O)c2nc3scc(COc4ccc(CC(=O)O)cc4)c3c(=O)[nH]2)c1
67 | 156 to 157 °C | CCCn1c(=O)c2c(nc(/C=C/c3ccc(OC(=O)c4ccccc4)c(OC)c3)n2C)n(CCC)c1=O
68 | 144 to 145 °C | COc1cc(OCC(CO)CO)c(-c2cccs2)cc1C=O
69 | 96 to 97 °C | CCOC(=O)c1cccc(-c2nc(-c3ccc(C(C)(C)C)cc3)cs2)c1
70 | 140 to 142 °C | CC1CCCC(C(=O)c2[nH]c3cc(Cl)ccc3c2N)C1 (stereo not given)
71 | 192 to 193 °C | CCCc1noc(/C=C/c2cn(-c3ccccc3)nc2OCc2ccc(OCc3nc(-c4ccco4)oc3C)c(OC)c2)n1
72 | 105 to 106 °C | Cc1cccc(C)c1NCCNCC(O)COc1ccc(F)cc1 (stereo not given)

Row | melting point | Structure (SMILES)
73 | 225 to 226 °C | CC(O)CNc1c(F)cc2c(=O)c(C(=O)O)cn(-c3cc(N)c(F)cc3F)c2c1Cl (stereo not given)
74 | 163 °C | CC(=O)N1N=C(c2ccncc2)OC1c1c(Cl)cccc1Cl (stereo not given)
75 | > 280 °C | N#CCC(=O)Nc1ccc(-c2ncc(C(=O)O)c(O)n2)cc1
76 | 143 to 145 °C | O=C1CCC2(CC1)OC(c1ccccc1)c1ccccc12 (stereo not given)
77 | 55 to 56 °C | C#CCSc1ccncc1
78 | 143 to 146 °C | CC(C)CC(NC(=O)Cc1cccc2ccccc12)C(=O)NC(Cc1ccccc1)C(=O)CSCc1ccco1 (stereo not given)
79 | 168 to 170 °C | Nn1c(-c2ccccc2Cl)nnc1-c1ccccc1Cl
80 | 119 to 121 °C | c1ccc2c(c1)C1(CO1)c1ccccc1C21CO1 (stereo not given)
81 | 131 to 134 °C | COc1cc2c(c(OC)c1)C1CCC3(C)C(OC(C)=O)CCC3C1CC2 (stereo not given)
82 | 205 to 209 °C | CCOCc1nc2c(N)nc3cc(OCCCCCCNC(=O)NC(C)C)ccc3c2n1CC(C)(C)NC(=O)NC(C)C
83 | 58 to 61 °C | CCOC(=O)CC(NC(=O)C1CCCCC1)C(=O)c1ccco1 (stereo not given)
84 | 89 to 90 °C | CCCCCCC(=N)NC(=S)Nc1ccc(Cl)c(Cl)c1
85 | 161 to 163 °C | C=CCN1C(=O)N(CC=C)[C@@H](C(=O)O)[C@H]1C(=O)O
86 | 98 to 100 °C | CCOC(=O)C1=Cc2cc(Cl)cc(CO)c2OC1C(F)(F)F (stereo not given)
87 | 100 to 102 °C | COc1ccc(C2=CCCc3cc(OC)ccc32)cc1
88 | 200 °C | COc1ccc(-c2cncc(-c3cn(C)c(=O)n3-c3ccc(C(C)(C)C#N)cc3)c2)cc1
89 | 255 to 256 °C | O=C1C(=O)c2ccccc2C2=C1SCC1(CCN(S(=O)(=O)c3cccc(Cl)c3)CC1)O2
90 | 100 to 102 °C | CNC(=O)C(=NOC)c1cccc(Cl)c1COc1ccc(Sc2ccc(C)cc2)cn1
91 | 145 to 152 °C | CC(C)c1cc(S(N)(=O)=O)c(C(C)C)cc1Br
92 | 195 to 197 °C | Cc1cccc(N2Cc3nc(C(=O)O)nn3-c3ccccc32)c1C
93 | 212 °C | O=C(N[C@H]1CC[C@H](CCN2CCN(c3nccc4c3OCC4)CC2)CC1)c1ccc2ncccc2c1
94 | 156 to 157 °C | Cc1cc(C)n2ncc([N+](=O)[O-])c2n1
95 | 60 to 63 °C | CCOC(=O)c1cnc2sccc2c1Sc1ccc(C)cc1

Row | Structure (SMILES) | melting point
96 | O=C(c1c[nH]c2nc(Cl)ccc12)N1CCN2CCC1CC2 | 228 to 229 °C
97 | Oc1ccc(CCc2cc(O)cc(O)c2)cc1 | 160 to 161 °C
98 | O=C(Cc1ccc(Cl)c(Cl)c1)N1CCC2(CC1CN1CCCC1)SCCS2 (stereo not given) | 119 to 120 °C
99 | COc1ccc(C2=NCc3nnc(CN(C)C)n3-c3ccc(Cl)cc32)cc1 | 224 to 225 °C
100 | CC1(C)CCC(C)(C)c2cc(CC#Cc3ccc(C(=O)O)c(O)c3)c(O)cc21 | 216 to 217 °C
